Results as given in US20230333121A1, “METHODS AND COMPOSITIONS RELATING TO BIOMARKERS FOR NEURODEGENERATIVE DISEASES” (ANACALYPSIS THERAPEUTICS, IKE, priority 2020, published 2023).

Target: T1, pS935-LRRK2 (Homo sapiens, UniProt Q5S007)
T1 construct: fresh PBMCs from healthy volunteer donors; endogenous in cells; host or cells: fresh and cryopreserved PBMCs from healthy volunteer donors
Assay: pS935-LRRK2 ELISA on freshly isolated PBMCs from healthy volunteers
Type: cell-based
Details: increasing concentrations, 1 hour (FIG. 3C)
Description: Phosphorylation of LRRK2 at the Ser935 residue by ELISA was assessed. For each sample, the signal corresponding to pS935-LRRK2 was normalized to its corresponding value of total LRRK2 (in ng/ml). Increasing amounts of recombinant human full-length LRRK2 was bound to parallel ELISA plates using the c41-2 clone for capture, and detected using total (N241A; for normalization) or phosphorylated (pS935-LRRK2, UDD2) antibodies (FIG. 3A). […] Freshly isolated PBMCs from healthy volunteers were treated with increasing concentrations of the kinase inhibitor PF-475 for 1 hour, and subjected to pS935-LRRK2 ELISA (FIG. 3C). […] In contrast, in PBMC extracts from carriers of the G2019S mutation, with and without PD, there was a non-significant trend towards lower levels of pS935-LRRK2 compared to healthy controls (FIG. 3E). The values of all G2019S carriers are pooled for comparison against healthy controls (FIG. 3F). Levels of pS935-LRRK2 and various clinical parameters were compared (FIG. 3G). In iPD patients, there was no correlation between pS935-LRRK2 and the motor function scale UPDRS-III (not shown); however, performance on the cognitive function test, MoCA, was negatively correlated with pS935-LRRK2 levels in iPD patients (FIG. 3G; right panel) and healthy controls (FIG. 3G; center panel).

T1 sequence (Q5S007 whole entry): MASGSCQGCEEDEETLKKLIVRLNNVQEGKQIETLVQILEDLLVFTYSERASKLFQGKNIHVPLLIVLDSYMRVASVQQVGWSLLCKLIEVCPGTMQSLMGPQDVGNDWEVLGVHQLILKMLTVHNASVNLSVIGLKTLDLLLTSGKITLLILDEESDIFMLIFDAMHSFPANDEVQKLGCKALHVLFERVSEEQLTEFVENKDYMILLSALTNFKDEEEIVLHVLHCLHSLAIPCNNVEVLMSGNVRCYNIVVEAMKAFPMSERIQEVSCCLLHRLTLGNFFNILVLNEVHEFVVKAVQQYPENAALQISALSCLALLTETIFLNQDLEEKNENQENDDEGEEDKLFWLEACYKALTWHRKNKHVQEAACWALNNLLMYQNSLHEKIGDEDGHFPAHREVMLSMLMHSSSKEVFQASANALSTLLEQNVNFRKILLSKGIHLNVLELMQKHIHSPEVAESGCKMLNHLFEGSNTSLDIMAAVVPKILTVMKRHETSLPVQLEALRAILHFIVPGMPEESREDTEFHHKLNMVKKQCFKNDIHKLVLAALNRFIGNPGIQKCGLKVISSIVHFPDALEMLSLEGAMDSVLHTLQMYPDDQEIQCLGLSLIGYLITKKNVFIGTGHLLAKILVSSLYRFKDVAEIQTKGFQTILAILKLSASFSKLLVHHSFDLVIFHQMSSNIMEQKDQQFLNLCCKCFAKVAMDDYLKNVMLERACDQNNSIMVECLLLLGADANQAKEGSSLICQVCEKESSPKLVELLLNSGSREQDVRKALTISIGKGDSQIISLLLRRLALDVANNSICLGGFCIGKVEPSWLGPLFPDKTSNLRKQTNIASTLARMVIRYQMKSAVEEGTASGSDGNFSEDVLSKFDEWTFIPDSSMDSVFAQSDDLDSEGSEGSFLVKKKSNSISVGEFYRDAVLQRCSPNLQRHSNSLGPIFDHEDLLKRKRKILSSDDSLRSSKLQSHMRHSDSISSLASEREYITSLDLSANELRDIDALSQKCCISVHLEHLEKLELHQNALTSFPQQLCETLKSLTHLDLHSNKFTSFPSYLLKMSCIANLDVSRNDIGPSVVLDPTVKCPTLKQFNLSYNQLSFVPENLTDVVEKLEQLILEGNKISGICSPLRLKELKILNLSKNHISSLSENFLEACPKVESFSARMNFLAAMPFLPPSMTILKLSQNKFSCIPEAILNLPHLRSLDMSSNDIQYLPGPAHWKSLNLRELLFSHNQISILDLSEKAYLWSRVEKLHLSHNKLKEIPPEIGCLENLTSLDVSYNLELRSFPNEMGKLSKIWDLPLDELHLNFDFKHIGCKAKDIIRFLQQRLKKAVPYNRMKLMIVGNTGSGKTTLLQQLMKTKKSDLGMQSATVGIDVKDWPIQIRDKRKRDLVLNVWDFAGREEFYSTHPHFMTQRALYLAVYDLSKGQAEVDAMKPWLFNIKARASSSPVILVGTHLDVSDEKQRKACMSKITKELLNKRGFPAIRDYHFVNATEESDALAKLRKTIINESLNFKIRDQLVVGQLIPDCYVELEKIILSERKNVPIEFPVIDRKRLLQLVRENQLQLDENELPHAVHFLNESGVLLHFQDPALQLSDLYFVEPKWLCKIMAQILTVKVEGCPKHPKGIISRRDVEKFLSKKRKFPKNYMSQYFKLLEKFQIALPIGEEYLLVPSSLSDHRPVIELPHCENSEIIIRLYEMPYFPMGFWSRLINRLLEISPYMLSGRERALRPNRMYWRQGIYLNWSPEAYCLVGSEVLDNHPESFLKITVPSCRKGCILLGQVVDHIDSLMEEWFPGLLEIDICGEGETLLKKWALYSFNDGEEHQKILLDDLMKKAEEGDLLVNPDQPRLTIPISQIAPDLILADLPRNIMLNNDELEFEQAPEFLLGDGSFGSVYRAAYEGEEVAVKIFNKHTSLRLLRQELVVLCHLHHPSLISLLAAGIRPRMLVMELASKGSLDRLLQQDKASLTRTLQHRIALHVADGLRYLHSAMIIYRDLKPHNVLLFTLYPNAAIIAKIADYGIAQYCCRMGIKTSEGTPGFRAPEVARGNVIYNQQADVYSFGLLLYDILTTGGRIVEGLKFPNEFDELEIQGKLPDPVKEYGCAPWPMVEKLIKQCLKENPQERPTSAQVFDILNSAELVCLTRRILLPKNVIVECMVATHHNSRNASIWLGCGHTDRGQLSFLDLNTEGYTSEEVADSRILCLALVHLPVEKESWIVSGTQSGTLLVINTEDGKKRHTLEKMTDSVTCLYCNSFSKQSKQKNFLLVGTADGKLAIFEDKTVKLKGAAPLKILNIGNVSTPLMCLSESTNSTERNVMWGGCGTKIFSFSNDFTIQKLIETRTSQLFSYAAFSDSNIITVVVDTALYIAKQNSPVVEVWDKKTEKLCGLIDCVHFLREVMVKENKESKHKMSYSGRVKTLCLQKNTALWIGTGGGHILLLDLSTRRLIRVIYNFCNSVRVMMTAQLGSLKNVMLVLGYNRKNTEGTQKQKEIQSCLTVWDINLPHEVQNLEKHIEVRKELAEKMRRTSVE

N#Cc1cccc(-c2c[nH]c3ncnc(N4CCOCC4)c23)c1 [PF-475]
phosphorylated LRRK2 (pS935-LRRK2) level: significant dose-dependent loss
